We go through 4 molecules from patent US9023789B2, “Amylin analogs and pharmaceutical compositions thereof” (Novo Nordisk A/S, priority 2012, dated 2015).

SMILES strings stand for the structures. Converted amounts (≈) assume the structure as drawn. Read-outs that look alike come from different tables or passages of the source. Numbered stars: 1 amine (or outer) side, 2 acyl side, 3 side chain; on linkers, the order of the positions; unused ones are H or OH. Bridge positions count the residues as written; N and C are the ends. Side chains are listed from the residue outwards. Peptide text beside a SMILES is read from it. * marks the point of attachment. C20 diacid = O=C(O)CCCCCCCCCCCCCCCCCCC(=O)*; γGlu = O=C(O)[C@H](CCC(=O)[*:2])N[*:1]; AEEA = NCCOCCOCC(=O)O A value given as a limit tells only on which side of the number the result lay.

One data set deals with Sprague Dawley (SD) rats. The experiment in a line: ASSAY (I) efficacy testing on appetite (food intake) using an ad libitum fed rat model. Type of data set: in vivo. To be noted: rat, 30 nmol/kg. Put shortly: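 Ad libitum fed SD rats (200–250 g) were housed singly on a reversed light/dark cycle and given one 0.01–3 mg/kg dose ip, po or sc just before lights-off, with 5–8 per dose group plus vehicle controls. Food intake was recorded hourly for 7 h, then at 24 h and sometimes 48 h; Grubbs outliers were excluded.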

Data set [1] can be described thus: ASSAY (III) ThT fibrillation assay for physical stability. The data set is classed as physicochemical. Put shortly:
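Formulations with 1 μM ThT, pH adjusted as required, incubated at 37 °C with 960 rpm orbital shaking; fluorescence (ex 444/em 485 nm) read every 20 min. Fibrillation reported as mean ThT fluorescence ± SD of 4–8 replicates at time points; polypeptide concentration measured by reverse-phase HPLC before and after, post-centrifugation.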

Data set [2] in a line: ASSAY (IV) determination of solubility. The data set is classed as physicochemical. The method in brief: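 Polypeptide in water at […] mixed 1:1 with 100 mM buffers of pH 3.0-8.0 (glycylglycine pH 3-5, bistrispropane pH 6-8). Held 18 h at room temperature, then centrifuged; concentration remaining in solution measured by UPLC.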
Setting [3] is: bistrispropane buffer, pH 6.5, read-out: Solubility pH 6.5 Concentration.
Where [4] appears, read: bistrispropane buffer, pH 7.5, read-out: Solubility pH 7.5 Concentration.
Setting [5] is: bistrispropane buffer, pH 6.0, read-out: Solubility pH 6.0 Concentration.
Setting [6] is: bistrispropane buffer, pH 7.0, read-out: Solubility pH 7.0 Concentration.
The mark [7] stands for this setting: bistrispropane buffer, pH 8.0, read-out: Solubility pH 8.0 Concentration.
The mark [8] stands for this setting: glycylglycine buffer, pH 3.0, read-out: Solubility pH 3.0 Concentration.
Setting [9] is: glycylglycine buffer, pH 4.0, read-out: Solubility pH 4.0 Concentration.
[10] abbreviates: glycylglycine buffer, pH 5.0, read-out: Solubility pH 5.0 Concentration.

Consider `CC[C@H](C)[C@H](NC(=O)[C@H](C)NC(=O)CNC(=O)[C@H](Cc1ccccc1)NC(=O)[C@H](CC(N)=O)NC(=O)[C@@H]1CCCN1C(=O)[C@H](CO)NC(=O)[C@H](CO)NC(=O)[C@H](Cc1c[nH]cn1)NC(=O)[C@H](CCCNC(=N)N)NC(=O)[C@H](CC(C)C)NC(=O)[C@H](Cc1ccccc1)NC(=O)[C@H](CC(=O)O)NC(=O)[C@H](C)NC(=O)[C@H](CC(C)C)NC(=O)[C@H](CCCNC(=N)N)NC(=O)[C@H](CCC(N)=O)NC(=O)[C@@H](NC(=O)[C@H](C)NC(=O)[C@@H]1CSSC[C@H](NC(=O)[C@@H](N)CCCCNC(=O)CC[C@H](NC(=O)CC[C@H](NC(=O)CCCCCCCCCCCCCCCCCCC(=O)O)C(=O)O)C(=O)O)C(=O)N[C@@H](CC(N)=O)C(=O)N[C@@H]([C@@H](C)O)C(=O)N[C@@H](C)C(=O)N[C@@H]([C@@H](C)O)C(=O)N1)[C@@H](C)O)C(=O)N1CCC[C@H]1C(=O)N[C@@H](CO)C(=O)N[C@@H](CO)C(=O)N[C@H](C(=O)N[C@@H](CC(N)=O)C(=O)N[C@H](C(=O)NCC(=O)N1CCC[C@H]1C(=O)N[C@@H](CCCNC(=N)N)C(=O)N[C@H](C(=O)N[C@@H](Cc1ccc(O)cc1)C(N)=O)[C@@H](C)O)C(C)C)[C@@H](C)O` [Example 130] (H-K([γGlu-γGlu-C20 diacid])CNTATCATQRLADFLRHSSPNFGAIPSSTNVGPRTY-NH2; disulfide 2-7 (inferred); N-terminus assumed), for which the “Food intake reduction 0-24 h 30 nmol/kg (%)” value with Sprague Dawley (SD) rats worked out at 80%. In addition, the “Food intake reduction 24-48 h 30 nmol/kg (%)” value with Sprague Dawley (SD) rats is 27%. For the same molecule, the “ThT pH 4.0 lag time (h)” value in data set [1] came to 45 h. Further, the solubility at 18 h in data set [2] (setting [3]), in data set [2] (setting [4]), in data set [2] (setting [5]), in data set [2] (setting [6]), in data set [2] (setting [7]) and in data set [2] (setting [8]) was at least 200 µM each time. Besides, the solubility at 18 h in data set [2] (setting [9]) and in data set [2] (setting [10]) was at least 200 µM in each case.
On to `CC[C@H](C)[C@H](NC(=O)[C@H](C)NC(=O)CNC(=O)[C@H](Cc1ccccc1)NC(=O)[C@H](CC(N)=O)NC(=O)[C@@H]1CCCN1C(=O)[C@H](CO)NC(=O)[C@H](CO)NC(=O)[C@H](Cc1c[nH]cn1)NC(=O)[C@H](CCCNC(=N)N)NC(=O)[C@H](CC(C)C)NC(=O)[C@H](Cc1ccccc1)NC(=O)[C@H](CC(N)=O)NC(=O)[C@H](C)NC(=O)[C@H](CC(C)C)NC(=O)[C@H](CCCNC(=N)N)NC(=O)[C@H](CCC(N)=O)NC(=O)[C@@H](NC(=O)[C@H](C)NC(=O)[C@@H]1CSSC[C@H](NC(=O)[C@@H](N)CCCCNC(=O)CC[C@H](NC(=O)CCCCCCCCCCCCCCCCCCC(=O)O)C(=O)O)C(=O)N[C@@H](CC(N)=O)C(=O)N[C@@H]([C@@H](C)O)C(=O)N[C@@H](C)C(=O)N[C@@H]([C@@H](C)O)C(=O)N1)[C@@H](C)O)C(=O)N1CCC[C@H]1C(=O)N[C@@H](CO)C(=O)N[C@@H](CO)C(=O)N[C@H](C(=O)N[C@@H](CC(N)=O)C(=O)N[C@H](C(=O)NCC(=O)N[C@@H](Cc1c[nH]cn1)C(=O)N[C@@H](CC(N)=O)C(=O)N[C@H](C(=O)N[C@@H](Cc1ccc(O)cc1)C(N)=O)[C@@H](C)O)C(C)C)[C@@H](C)O` [Example 77], for which, in the data set with Sprague Dawley (SD) rats, the “Food intake reduction 0-24 h 30 nmol/kg (%)” value was determined as 40%. Moreover, in the data set with Sprague Dawley (SD) rats, the “Food intake reduction 24-48 h 30 nmol/kg (%)” value was 16%. Also, the “ThT pH 4.0 lag time (h)” value in data set [1] came to 21 h. Moreover, the solubility at 18 h in data set [2] (setting [3]) is at least 200 µM; in data set [2] (setting [4]), 147 µM (≈ 651 µg/mL); in data set [2] (setting [5]), at least 200 µM; in data set [2] (setting [6]) it was at least 200 µM; in data set [2] (setting [7]), 59 µM (≈ 261 µg/mL); in data set [2] (setting [8]), at least 200 µM. Further, the solubility at 18 h in data set [2] (setting [9]) and in data set [2] (setting [10]) was at least 200 µM throughout. The “Solubility pH 6.5 Concentration” value in data set [2] (pH 6.5 (Table 9a)) is “≧200 μM”. Moreover, the “Solubility pH 7.0 Concentration” value in data set [2] (pH 7.0 (Table 9a)) is “≧200 μM”.
Turning to `CC[C@H](C)[C@H](NC(=O)[C@H](C)NC(=O)CNC(=O)[C@H](Cc1ccccc1)NC(=O)[C@H](CC(N)=O)NC(=O)[C@@H]1CCCN1C(=O)[C@H](CO)NC(=O)[C@H](CO)NC(=O)[C@H](Cc1c[nH]cn1)NC(=O)[C@H](CCCNC(=N)N)NC(=O)[C@H](CC(C)C)NC(=O)[C@H](Cc1ccccc1)NC(=O)[C@H](CO)NC(=O)[C@H](C)NC(=O)[C@H](CC(C)C)NC(=O)[C@H](CCCNC(=N)N)NC(=O)[C@H](CCC(N)=O)NC(=O)[C@@H](NC(=O)[C@H](C)NC(=O)[C@@H]1CSSC[C@H](NC(=O)[C@@H](N)CCCCNC(=O)CC[C@H](NC(=O)CC[C@H](NC(=O)CCCCCCCCCCCCCCCCCCC(=O)O)C(=O)O)C(=O)O)C(=O)N[C@@H](CC(N)=O)C(=O)N[C@@H]([C@@H](C)O)C(=O)N[C@@H](C)C(=O)N[C@@H]([C@@H](C)O)C(=O)N1)[C@@H](C)O)C(=O)N1CCC[C@H]1C(=O)N[C@@H](CO)C(=O)N[C@@H](CO)C(=O)N[C@H](C(=O)N[C@@H](CC(N)=O)C(=O)N[C@H](C(=O)NCC(=O)N1CCC[C@H]1C(=O)N[C@@H](CCC(=O)O)C(=O)N[C@H](C(=O)N[C@@H](Cc1ccc(O)cc1)C(N)=O)[C@@H](C)O)C(C)C)[C@@H](C)O` [Example 120] (H-K([γGlu-γGlu-C20 diacid])CNTATCATQRLASFLRHSSPNFGAIPSSTNVGPETY-NH2; disulfide 2-7 (inferred); N-terminus assumed), the “Food intake reduction 0-24 h 30 nmol/kg (%)” value in the data set with Sprague Dawley (SD) rats turned out to be 66%. Further, the “Food intake reduction 24-48 h 30 nmol/kg (%)” value in the data set on Sprague Dawley (SD) rats was found to be 61%. The “ThT pH 4.0 lag time (h)” value in data set [1] is given as 14 h. Moreover, the solubility at 18 h in data set [2] (setting [3]), in data set [2] (setting [4]), in data set [2] (setting [5]), in data set [2] (setting [6]), in data set [2] (setting [7]) and in data set [2] (setting [8]) was at least 200 µM in each case. In addition, the solubility at 18 h in data set [2] (setting [9]) and in data set [2] (setting [10]) was at least 200 µM each time.
Take `CC[C@H](C)[C@H](NC(=O)[C@H](C)NC(=O)CNC(=O)[C@H](Cc1ccccc1)NC(=O)[C@H](CC(N)=O)NC(=O)[C@@H]1CCCN1C(=O)[C@H](CO)NC(=O)[C@H](CO)NC(=O)[C@H](Cc1c[nH]cn1)NC(=O)[C@H](CCCNC(=N)N)NC(=O)[C@H](CC(C)C)NC(=O)[C@H](Cc1ccccc1)NC(=O)[C@H](Cc1c[nH]cn1)NC(=O)[C@H](C)NC(=O)[C@H](CC(C)C)NC(=O)[C@H](CCCNC(=N)N)NC(=O)[C@H](CCC(N)=O)NC(=O)[C@@H](NC(=O)[C@H](C)NC(=O)[C@@H]1CSSC[C@H](NC(=O)[C@@H](N)CCCCNC(=O)COCCOCCNC(=O)CC[C@H](NC(=O)CCCCCCCCCCCCCCCCCCC(=O)O)C(=O)O)C(=O)N[C@@H](CC(N)=O)C(=O)N[C@@H]([C@@H](C)O)C(=O)N[C@@H](C)C(=O)N[C@@H]([C@@H](C)O)C(=O)N1)[C@@H](C)O)C(=O)N1CCC[C@H]1C(=O)N[C@@H](CO)C(=O)N[C@@H](CO)C(=O)N[C@H](C(=O)N[C@@H](CC(N)=O)C(=O)N[C@H](C(=O)NCC(=O)N[C@@H](Cc1c[nH]cn1)C(=O)N[C@@H](CC(N)=O)C(=O)N[C@H](C(=O)N[C@@H](Cc1ccc(O)cc1)C(N)=O)[C@@H](C)O)C(C)C)[C@@H](C)O` [Example 80] (H-K([AEEA-γGlu-C20 diacid])CNTATCATQRLAHFLRHSSPNFGAIPSSTNVGHNTY-NH2; disulfide 2-7; N-terminus assumed): in the data set with Sprague Dawley (SD) rats, the “Food intake reduction 0-24 h 30 nmol/kg (%)” value is listed as 46%. In addition, the “Food intake reduction 24-48 h 30 nmol/kg (%)” value in the data set with Sprague Dawley (SD) rats is reported as 9%. The “ThT pH 4.0 lag time (h)” value in data set [1] was found to be 28 h. The solubility at 18 h in data set [2] (setting [3]), in data set [2] (setting [4]), in data set [2] (setting [5]), in data set [2] (setting [6]), in data set [2] (setting [7]) and in data set [2] (setting [8]) was at least 200 µM in each case. Also, the solubility at 18 h in data set [2] (setting [9]) and in data set [2] (setting [10]) was at least 200 µM each time.
